In patent publication US7943797B2, “Products for the treatment of the iron chlorosis” (Tradecorp, S.A., priority 2006, dated 2011):

Columns and labels:
[1] = system: Soybean plants (Glycine max L. cv. Stine 0480) with induced Fe chlorosis; assay: Efficacy of Fe chelates to provide Fe to soybean plants in hydroponics: Fe content in plants; assay type: in vivo
Experimental: (§1) Soybean seeds (Glycine max L. cv. Stine 0480) were germinated at 30° C. and 60% RH on paper moistened with 1 M CaSO4 in dark for 2 days. Afterwards, seedlings were placed in 10 L containers (50 seedlings per container) filled with a 1/5 diluted EDTA buffered nutrient solution (macronutrients (mM)—1.0 Ca(NO3)2, 0.9 KNO3, 0.3 MgSO4, 0.1 KH2PO4; cationic micronutrients (μM)—5.0 EDTA/Fe^3+, 2.5 MnSO4, 1.0 CuSO4, 10 ZnSO4, 1.0 CoSO4, 1.0 NiCl2, 115.5 Na2EDTA; anionic micronutrients (μM)-35 NaCl, 10 H3BO3, 0.05 Na2MoO4; 0.1 mM HEPES) for 6 days. On the 7th day, in order to induce Fe chlorosis, seedlings were transferred to 12 L polypropylene buckets containing aerated full strength EDTA buffered nutrient solution but without Fe^3+-chelate. Plants were grown under these conditions until clear symptoms of Fe deficiency were observed (7 days) and then plants were placed in 2 L pots (6 plants per pot) covered with black plastic to avoid light exposure. The effect of different Fe chelates and doses were compared as Fe sources. Chelates used in the treatments were o,o-EDDHA/Fe^3+, o,p-EDDHA/Fe^3+, EDTA/Fe^3+ and Example 1/Fe^3+. The last one is the Fe chelate of the compound of the example 1: 2-(2-((2-hydroxybenzyl)amino)ethylamino)-2-(2-hydroxyphenyl)acetic acid (DCHA). Nutrient solution contained macronutrients and anionic micronutrients as for the seedling period and the following cationic micronutrients composition: (μM) 1.0 MnSO4, 0.5 CuSO4, 0.5 ZnSO4, 0.1 NiCl2 and 0.1 CoSO4. Also, 1 g·L^−1 of CaCO3 was added to the nutrient solution to buffer pH at 7.5 and to simulate conditions of a calcareous soil. Plants were grown for 21 days in this nutrient solution in a growth chamber provided with fluorescent and sodium vapour lamps with a 16 h/30° C. and 50% humidity day and 8 h/25° C. and 70% humidity night regime. Water was added every 2 days and the nutrient solution was renewed every 7 days. Treatments were replicated four times in a completely randomised design. Plants were harvested after 7, 14 and 21 days.
Root and shoot were separated and washed using Tween 80 (Merck) and HCl solution and fresh and dry (after oven dry procedure) weights were determined. Samples were ground and after dry digestion in a muffle furnace (480° C.), ashes are dissolved in HCl. Fe, Mn, Cu and Zn were analysed by atomic absorption spectrometry.

[2] = system: Soybean plants (Glycine max L. cv. Stine 0480) with induced Fe chlorosis; assay: Efficacy of Fe chelates to provide Fe to soybean plants in hydroponics: SPAD index; assay type: in vivo; details: for Regreening of plants (SPAD index): 20 days after treatment, regardless of the doses (5 and 10 μM)
Experimental: as §1
(§2) During the experiment, SPAD readings with a chlorophyll-meter (Minolta SPAD-502) were taken for all leaf stages (average of two or three readings per stage) every second day. Only values measured for the youngest fully open leaves (the 2nd stage at the 2nd day, the third at the 10th day and the fourth at the 20th day) are here presented (Table 1)

[3] = system: Soybean plants (Glycine max L. cv. Stine 0480) with induced Fe chlorosis; assay: Efficacy of Fe chelates to provide Fe to soybean plants in soil conditions: SPAD index; assay type: in vivo; details: for SPAD index / Recovery from chlorosis (SPAD): calcareous soil; for Recovery from chlorosis (SPAD): two days after the treatment application
Experimental: (§3) Soybean seeds (Glycine max L. cv. Stine 0480) were germinated at 30° C. and 60% RH on paper moistened with 1 M CaSO4 in dark for 2 days. Afterwards, seedlings were placed in 10 L containers (50 seedlings per container) filled with a 1/5 diluted EDTA buffered nutrient solution (macronutrients (mM)—1.0 Ca(NO3)2, 0.9 KNO3, 0.3 MgSO4, 0.1 KH2PO4; cationic micronutrients (μM)—5.0 EDTA/Fe^3+, 2.5 MnSO4, 1.0 CuSO4, 10 ZnSO4, 1.0 CoSO4, 1.0 NiCl2, 115.5 Na2EDTA; anionic micronutrients (μM)—35 NaCl, 10 H3BO3, 0.05 Na2MoO4; 0.1 mM HEPES) for 4 days. Then, in order to induce Fe chlorosis, nutrient solution without iron was used for two more days and then plants were transplanted in 1 L pots (3 plants per pot) containing 700 g of a calcareous soil ([…] calcium carbonate, 89 g·Kg^−1 CaCO3 active, pH 7.70) and 300 g of lime sand covered with black plastic to avoid light exposure. The effect of different Fe chelates were compared as Fe sources: o,o-EDDHA/Fe^3+, o,p-EDDHA/Fe^3+, EDTA/Fe^3+ and Example 1/Fe^3+. The last one is the Fe chelate of the compound of the example 1: 2-(2-((2-hydroxybenzyl)amino)ethylamino)-2-(2-hydroxyphenyl)acetic acid. Plants were grown for 21 days in this soil conditions in a growth chamber provided with fluorescent and sodium vapour lamps with a 16 h/30° C. and 50% humidity day and 8 h/25° C. and 70% humidity night regime. Treatments were replicated five times in a completely randomised design. Single plants were harvested after 2, 7 and 21 days.
as §2, with “Values” for “Only values”, “the” for “the youngest fully open leaves (the”, “12th” for “10th”, “fourth and fifth” for “fourth”, “22th” for “20th”, “4).” for “1)”

[4] = system: Soybean plants (Glycine max L. cv. Stine 0480) with induced Fe chlorosis; assay: Efficacy of Fe chelates in soil conditions: shoot dry weight and Fe concentration in leaves; assay type: in vivo; details: calcareous soil, three sampling times
Experimental: as §3, with “Plants were grown for 21 days in this soil conditions in a growth chamber provided with fluorescent and sodium vapour lamps with a 16 h/30° C. and 50% humidity day and 8 h/25° C. and 70% humidity night regime. Treatments were replicated five times in a completely randomised design. Single plants were harvested after 2, 7 and 21 days.” left out
In each sampling time shoots were separated and washed using Tween 80 (Merck) and HCl solution and fresh and dry (after oven dry procedure) weights were determined. […] Fe, Mn, Cu and Zn were analysed by atomic absorption spectrometry.

[5] = compared with o,o-EDDHA/Fe^3+; Yunta et al. 2003; cited from earlier work
[6] = 5 μM chelate (low dose), 1st sampling 7 days after treatment
[7] = 5 μM chelate (low dose), 2nd sampling 14 days after treatment
[8] = 5 μM chelate (low dose), 3rd sampling 21 days after treatment
[9] = 10 μM chelate (high dose), 1st sampling 7 days after treatment
[10] = 10 μM chelate (high dose), 2nd sampling 14 days after treatment
[11] = 10 μM chelate (high dose), 3rd sampling 21 days after treatment
[12] = 5 μM chelate, 2 days after treatment (2nd stage)
[13] = 5 μM chelate, 10 days after treatment (3rd stage)
[14] = 5 μM chelate, 20 days after treatment (4th stage)
[15] = 10 μM chelate, 2 days after treatment (2nd stage)
[16] = 10 μM chelate, 10 days after treatment (3rd stage)
[17] = 10 μM chelate, 20 days after treatment (4th stage)
[18] = 2 days after treatment (2nd stage)
[19] = 12 days after treatment (3rd stage)
[20] = 22 days after treatment (4th stage)
[21] = 22 days after treatment (5th stage)

Row | Structure (SMILES) | Fe content [1, 6] | Fe content [1, 7] | Fe content [1, 8] | Fe content [1, 9] | Fe content [1, 10] | Fe content [1, 11] | SPAD index [2, 12] | SPAD index [2, 13] | SPAD index [2, 14] | SPAD index [2, 15] | SPAD index [2, 16] | SPAD index [2, 17] | SPAD index [3, 18] | SPAD index [3, 19] | SPAD index [3, 20] | SPAD index [3, 21] | Recovery from chlorosis (SPAD) [3] | Regreening of plants (SPAD index) [2] | other results
1 | O=C([O-])C(NCCNCc1ccccc1[O-])c1ccccc1[O-].[Fe+3] (stereo not shown) [Example 1/Fe^3+] | 57.4 a μg Fe per plant | 152 a μg Fe per plant | 268 a μg Fe per plant | 69.3 a μg Fe per plant | 136 a μg Fe per plant | 235 a μg Fe per plant | 8.4 abc | 32.8 a | 34.8 a | 8.8 ab | 35.7 a | 35.0 a | 23.9 | 41.0 | 34.1 | 26.6 | better recovery | – | Fe provided to plants compared with the other treatments ([1]; hydroponics, lower Fe application (5 μM)): significantly higher amounts of iron and faster; Dry weight of shoots (FIG. 2) [4]: efficient Fe chlorosis corrector
2 | O=C([O-])CN(CCN(CC(=O)[O-])CC(=O)[O-])CC(=O)[O-].[Fe+3] [EDTA/Fe^3+] | 14.2 c μg Fe per plant | 19.6 c μg Fe per plant | 22.6 c μg Fe per plant | 27.7 b μg Fe per plant | 32.6 b μg Fe per plant | 47.6 b μg Fe per plant | 6.8 bcd | 6.9 days | 11.4 c | 8.1 abc | 16.6 c | 19.9 b | – | – | – | – | – | – | –
3 | O=C(O)C(NCCNCc1ccccc1O)c1ccccc1O (stereo not shown) [Example 1, 2-(2-((2-hydroxybenzyl)amino)ethylamino)-2-(2-hydroxyphenyl)acetic acid] | – | – | – | – | – | – | – | – | – | – | – | – | – | – | – | – | – | completely regreened | Speed of action to correct iron chlorosis ([2]; low doses, similar to o,p-EDDHA, higher than o,o-EDDHA): fast action to correct iron chlorosis; Efficacy against iron chlorosis ([3]; highly calcareous soil, only one treatment application): efficient to solve iron chlorosis in highly calcareous conditions
4 | O=C([O-])C(NCCNC(C(=O)[O-])c1ccccc1[O-])c1ccc(O)cc1.[Fe+3] (stereo not shown) [o,p-EDDHA/Fe^3+] | 43.0 ab μg Fe per plant | 128 a μg Fe per plant | 223 b μg Fe per plant | 77.8 a μg Fe per plant | 129 a μg Fe per plant | 259 a μg Fe per plant | 8.1 abc | 30.9 ab | 32.2 a | 10.4 a | 33.1 a | 32.9 a | 25.8 | 41.2 | 33.0 | 21.0 | better recovery | completely regreened | Stability of the Fe3+ chelate [5]: lower stability
5 | O=C([O-])C(NCCNC(C(=O)[O-])c1ccccc1[O-])c1ccccc1[O-].[Fe+3] (stereo not shown) [o,o-EDDHA/Fe^3+] | 26.0 bc μg Fe per plant | 83.6 b μg Fe per plant | 202 b μg Fe per plant | 61.4 a μg Fe per plant | 129 a μg Fe per plant | 254 a μg Fe per plant | 6.2 cd | 26.7 b | 30.2 a | 9.1 ab | 31.6 ab | 32.4 a | 22.4 | 42.1 | 34.1 | 28.8 | – | completely regreened | –
